Results taken from the supplement of paper PMC13207355.
Where a name gives a salt, the structure may show the parent alone.

Legend:
Details in all cases: exposure time: 72 h
[1] = test system: E13 (patient-derived glioblastoma stem cells of classical subtype); experiment: surviving fraction (nuclei count normalised to DMSO); higher = more cells surviving (less toxic)
[2] = test system: E34 (patient-derived glioblastoma stem cells of proneural subtype); experiment: as above
[3] = test system: FT3469 (normal neural stem cell line); experiment: as above
[4] = test system: E57 (patient-derived glioblastoma stem cells of mesenchymal subtype); experiment: as above
[5] = test system: E31 (patient-derived glioblastoma stem cells of proneural subtype); experiment: as above
[6] = test system: E21 (patient-derived glioblastoma stem cells of mesenchymal subtype); experiment: as above
[7] = test system: E28 (patient-derived glioblastoma stem cells of classical subtype); experiment: as above
[8] = test system: E13; experiment: phenotypic distance (Euclidean, principal components) from DMSO controls (arbitrary units); higher = stronger morphological change
[9] = test system: E34; experiment: as above
[10] = test system: FT3469; experiment: as above
[11] = test system: E57; experiment: as above
[12] = test system: E31; experiment: as above
[13] = test system: E21; experiment: as above
[14] = test system: E28; experiment: as above
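For phenotypic distance (Euclidean, principal components) from DMSO controls in this document: cell Painting imaging in 384-well plates, CellProfiler features reduced to at least 20 principal components, Euclidean distance versus same-plate DMSO vehicle wells (0.1% v/v), median over six images per well.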
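For surviving fraction (nuclei count normalised to DMSO) in this document: nuclei counted by high-content imaging of Hoechst-stained cells in laminin-coated 384-well plates, relative to 0.1% DMSO vehicle wells, with staurosporine as cell-death control.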

COc1cc([C@@H]2c3cc4c(cc3[C@@H](O[C@@H]3O[C@@H]5CO[C@@H](c6cccs6)O[C@H]5[C@H](O)[C@H]3O)[C@H]3COC(=O)[C@H]23)OCO4)cc(OC)c1O [Teniposide]
Details	phenotypic distance	surviving fraction
[1], 4.1 nM	–	0.713
[1], 12.3 nM	–	0.528
[1], 37 nM	–	0.45
[1], 111.1 nM	–	0.412
[1], 333.3 nM	–	0.351
[1], 1000 nM	–	0.305
[1], 3000 nM	–	0.174
[2], 4.1 nM	–	0.758
[2], 12.3 nM	–	0.677
[2], 37 nM	–	0.577
[2], 111.1 nM	–	0.57
[2], 333.3 nM	–	0.501
[2], 1000 nM	–	0.447
[2], 3000 nM	–	0.373
[3], 4.1 nM	–	0.636
[3], 12.3 nM	–	0.643
[3], 37 nM	–	0.644
[3], 111.1 nM	–	0.62
[3], 333.3 nM	–	0.595
[3], 1000 nM	–	0.629
[3], 3000 nM	–	0.544
[4], 4.1 nM	–	0.727
[4], 12.3 nM	–	0.418
[4], 37 nM	–	0.323
[4], 111.1 nM	–	0.212
[4], 333.3 nM	–	0.167
[4], 1000 nM	–	0.178
[4], 3000 nM	–	0.148
[5], 4.1 nM	–	0.376
[5], 12.3 nM	–	0.25
[5], 37 nM	–	0.241
[5], 111.1 nM	–	0.201
[5], 333.3 nM	–	0.2
[5], 1000 nM	–	0.243
[5], 3000 nM	–	0.191
[6], 4.1 nM	–	0.902
[6], 12.3 nM	–	0.682
[6], 37 nM	–	0.589
[6], 111.1 nM	–	0.552
[6], 333.3 nM	–	0.376
[6], 1000 nM	–	0.145
[6], 3000 nM	–	0.177
[7], 4.1 nM	–	0.491
[7], 12.3 nM	–	0.379
[7], 37 nM	–	0.428
[7], 111.1 nM	–	0.351
[7], 333.3 nM	–	0.32
[7], 1000 nM	–	0.269
[7], 3000 nM	–	0.314
[8], 4.1 nM	1.43	–
[8], 12.3 nM	3.27	–
[8], 37 nM	4.96	–
[8], 111.1 nM	5.68	–
[8], 333.3 nM	5.77	–
[8], 1000 nM	5.12	–
[8], 3000 nM	6.24	–
[9], 4.1 nM	1.81	–
[9], 12.3 nM	2.04	–
[9], 37 nM	3.24	–
[9], 111.1 nM	3.96	–
[9], 333.3 nM	4.04	–
[9], 1000 nM	2.46	–
[9], 3000 nM	2.97	–
[10], 4.1 nM	1.68	–
[10], 12.3 nM	2.44	–
[10], 37 nM	2.6	–
[10], 111.1 nM	2.26	–
[10], 333.3 nM	1.97	–
[10], 1000 nM	1.78	–
[10], 3000 nM	2.12	–
[11], 4.1 nM	1.82	–
[11], 12.3 nM	4.96	–
[11], 37 nM	6.24	–
[11], 111.1 nM	8.39	–
[11], 333.3 nM	8.07	–
[11], 1000 nM	6.94	–
[11], 3000 nM	6.61	–
[12], 4.1 nM	4.09	–
[12], 12.3 nM	2.97	–
[12], 37 nM	3.3	–
[12], 111.1 nM	3.9	–
[12], 333.3 nM	2.97	–
[12], 1000 nM	2.67	–
[12], 3000 nM	3.37	–
[13], 4.1 nM	0.843	–
[13], 12.3 nM	2.77	–
[13], 37 nM	3.95	–
[13], 111.1 nM	5.39	–
[13], 333.3 nM	5.06	–
[13], 1000 nM	6.2	–
[13], 3000 nM	6.57	–
[14], 4.1 nM	3.11	–
[14], 12.3 nM	3.7	–
[14], 37 nM	3.52	–
[14], 111.1 nM	3.17	–
[14], 333.3 nM	3.7	–
[14], 1000 nM	3.58	–
[14], 3000 nM	3.53	–

CSc1ccc2c(c1)N(CCC1CCCCN1C)c1ccccc1S2 (centres undefined) [Thioridazine hydrochloride]
Details	phenotypic distance	surviving fraction
[1], 4.1 nM	–	0.922
[1], 12.3 nM	–	0.886
[1], 37 nM	–	0.934
[1], 111.1 nM	–	0.929
[1], 333.3 nM	–	0.939
[1], 1000 nM	–	0.93
[1], 3000 nM	–	0.861
[2], 4.1 nM	–	0.994
[2], 12.3 nM	–	0.901
[2], 37 nM	–	0.957
[2], 111.1 nM	–	0.923
[2], 333.3 nM	–	0.896
[2], 1000 nM	–	0.974
[2], 3000 nM	–	0.91
[3], 4.1 nM	–	1.11
[3], 12.3 nM	–	0.948
[3], 37 nM	–	1.02
[3], 111.1 nM	–	0.934
[3], 333.3 nM	–	1
[3], 1000 nM	–	1.06
[3], 3000 nM	–	0.997
[4], 4.1 nM	–	0.993
[4], 12.3 nM	–	0.914
[4], 37 nM	–	0.948
[4], 111.1 nM	–	0.926
[4], 333.3 nM	–	0.952
[4], 1000 nM	–	0.889
[4], 3000 nM	–	1.2
[5], 4.1 nM	–	0.911
[5], 12.3 nM	–	0.899
[5], 37 nM	–	1.03
[5], 111.1 nM	–	0.762
[5], 333.3 nM	–	1.01
[5], 1000 nM	–	0.88
[5], 3000 nM	–	0.874
[6], 4.1 nM	–	0.936
[6], 12.3 nM	–	0.936
[6], 37 nM	–	0.946
[6], 111.1 nM	–	1
[6], 333.3 nM	–	0.935
[6], 1000 nM	–	0.952
[6], 3000 nM	–	1.02
[7], 4.1 nM	–	1.06
[7], 12.3 nM	–	1.05
[7], 37 nM	–	1.01
[7], 111.1 nM	–	1.06
[7], 333.3 nM	–	1.14
[7], 1000 nM	–	0.893
[7], 3000 nM	–	1.05
[8], 4.1 nM	0.45	–
[8], 12.3 nM	0.608	–
[8], 37 nM	0.775	–
[8], 111.1 nM	3.1	–
[8], 333.3 nM	0.477	–
[8], 1000 nM	0.686	–
[8], 3000 nM	1.2	–
[9], 4.1 nM	1.83	–
[9], 12.3 nM	0.749	–
[9], 37 nM	0.609	–
[9], 111.1 nM	0.331	–
[9], 333.3 nM	0.663	–
[9], 1000 nM	0.609	–
[9], 3000 nM	0.89	–
[10], 4.1 nM	1.76	–
[10], 12.3 nM	1.1	–
[10], 37 nM	0.901	–
[10], 111.1 nM	0.672	–
[10], 333.3 nM	1.85	–
[10], 1000 nM	0.516	–
[10], 3000 nM	0.354	–
[11], 4.1 nM	1.05	–
[11], 12.3 nM	0.805	–
[11], 37 nM	0.596	–
[11], 111.1 nM	0.728	–
[11], 333.3 nM	0.352	–
[11], 1000 nM	0.966	–
[11], 3000 nM	0.872	–
[12], 4.1 nM	1.05	–
[12], 12.3 nM	0.458	–
[12], 37 nM	0.506	–
[12], 111.1 nM	0.946	–
[12], 333.3 nM	0.547	–
[12], 1000 nM	0.532	–
[12], 3000 nM	1.19	–
[13], 4.1 nM	1.5	–
[13], 12.3 nM	0.757	–
[13], 37 nM	0.366	–
[13], 111.1 nM	0.452	–
[13], 333.3 nM	0.631	–
[13], 1000 nM	0.422	–
[13], 3000 nM	0.911	–
[14], 4.1 nM	1.44	–
[14], 12.3 nM	0.64	–
[14], 37 nM	0.64	–
[14], 111.1 nM	0.832	–
[14], 333.3 nM	0.524	–
[14], 1000 nM	0.717	–
[14], 3000 nM	0.589	–

COC(=O)C[C@](O)(CCCC(C)(C)O)C(=O)O[C@@H]1C(OC)=C[C@]23CCCN2CCc2cc4c(cc2[C@H]13)OCO4 [Homoharringtonine]
Details	phenotypic distance	surviving fraction
[1], 4.1 nM	–	0.73
[1], 12.3 nM	–	0.702
[1], 37 nM	–	0.367
[1], 111.1 nM	–	0.401
[1], 333.3 nM	–	0.316
[1], 1000 nM	–	0.239
[1], 3000 nM	–	0.0816
[2], 4.1 nM	–	0.844
[2], 12.3 nM	–	0.873
[2], 37 nM	–	0.505
[2], 111.1 nM	–	0.553
[2], 333.3 nM	–	0.434
[2], 1000 nM	–	0.412
[2], 3000 nM	–	0.337
[3], 4.1 nM	–	0.701
[3], 12.3 nM	–	0.669
[3], 37 nM	–	0.604
[3], 111.1 nM	–	0.589
[3], 333.3 nM	–	0.536
[3], 1000 nM	–	0.53
[3], 3000 nM	–	0.436
[4], 4.1 nM	–	0.931
[4], 12.3 nM	–	0.677
[4], 37 nM	–	0.207
[4], 111.1 nM	–	0.215
[4], 333.3 nM	–	0.102
[4], 1000 nM	–	0.0784
[4], 3000 nM	–	0.0251
[5], 4.1 nM	–	0.502
[5], 12.3 nM	–	0.372
[5], 37 nM	–	0.226
[5], 111.1 nM	–	0.218
[5], 333.3 nM	–	0.209
[5], 1000 nM	–	0.164
[5], 3000 nM	–	0.171
[6], 4.1 nM	–	0.726
[6], 12.3 nM	–	0.721
[6], 37 nM	–	0.289
[6], 111.1 nM	–	0.402
[6], 333.3 nM	–	0.186
[6], 1000 nM	–	0.179
[6], 3000 nM	–	0.0999
[7], 4.1 nM	–	0.694
[7], 12.3 nM	–	0.573
[7], 37 nM	–	0.334
[7], 111.1 nM	–	0.41
[7], 333.3 nM	–	0.336
[7], 1000 nM	–	0.343
[7], 3000 nM	–	0.282
[8], 4.1 nM	1.66	–
[8], 12.3 nM	2.13	–
[8], 37 nM	4.35	–
[8], 111.1 nM	3.97	–
[8], 333.3 nM	5.67	–
[8], 1000 nM	7.51	–
[8], 3000 nM	8.63	–
[9], 4.1 nM	1.44	–
[9], 12.3 nM	1.62	–
[9], 37 nM	2.68	–
[9], 111.1 nM	3.86	–
[9], 333.3 nM	3.89	–
[9], 1000 nM	4.65	–
[9], 3000 nM	6.65	–
[10], 4.1 nM	1.22	–
[10], 12.3 nM	1.49	–
[10], 37 nM	1.36	–
[10], 111.1 nM	2	–
[10], 333.3 nM	1.75	–
[10], 1000 nM	2.95	–
[10], 3000 nM	3.51	–
[11], 4.1 nM	1.28	–
[11], 12.3 nM	2.53	–
[11], 37 nM	4.58	–
[11], 111.1 nM	4.46	–
[11], 333.3 nM	6.69	–
[11], 1000 nM	8.52	–
[11], 3000 nM	8.81	–
[12], 4.1 nM	1.9	–
[12], 12.3 nM	2.41	–
[12], 37 nM	3.5	–
[12], 111.1 nM	4.14	–
[12], 333.3 nM	4.68	–
[12], 1000 nM	5.99	–
[12], 3000 nM	5.88	–
[13], 4.1 nM	1.39	–
[13], 12.3 nM	1.73	–
[13], 37 nM	4.36	–
[13], 111.1 nM	3.63	–
[13], 333.3 nM	4.11	–
[13], 1000 nM	5.37	–
[13], 3000 nM	8.36	–
[14], 4.1 nM	1.42	–
[14], 12.3 nM	1.38	–
[14], 37 nM	2.63	–
[14], 111.1 nM	1.37	–
[14], 333.3 nM	2.87	–
[14], 1000 nM	3.53	–
[14], 3000 nM	4.17	–
